Assay results reported in patent publication US20050118603A1, “Target detection system having a conformationally sensitive probe comprising a nucleic acid based signal transducer” (Ahram Biosystems Inc., priority 2002, published 2005).
{Fluorescein} = fluorescein attached by a linker

How the values were obtained:
streptavidin [1] = biological target: T1, streptavidin (Streptomyces avidinii, UniProt P22629); assay: Inhibition of binding of the receptor agent to the probe ligand using unimolecular probe UP6-23B (Example 18); details: 12.5 pmol streptavidin, 50 pmol probe; background subtracted
T1 construct: purchased Pierce (IL, USA)
Procedure: Assay solutions for the inhibition test were prepared as follows. In each well of a 96 well PCR plate, 50 μL of 10 mM Tris, pH 8.5, 50 mM KCl, 2.5 mM MgCl2 containing 12.5 pmol of streptavidin and different amount of an inhibitor (biotin) was introduced and incubated for about 30 min at room temperature. About 50 pmol of the probe UP6-23B (SEQ ID NO: 141) was then added to each well and incubated for about 30 min at 60° C. before the fluorescence measurement.

[2] = system: T2, PKC probe UP10-23PKC (SEQ ID NO: 165), peptide KRTLRRC conjugated to the UP10-23A pre-probe
T2 sequence: KRTLRRC

streptavidin [3] = biological target: T1, streptavidin; assay: Receptor-binding assay, temperature dependence of fluorescence signal of unimolecular probes (Examples 11-17); details: for relative increase of the fluorescence intensity (¼ molar equivalent of streptavidin divided by that without streptavidin): 25° C., 50 pmol probe
Procedure: In order to perform receptor-binding assay, about 50 pmol of each unimolecular probe was mixed with 0, ⅛, and ¼ molar equivalent of streptavidin (0, 6.25, 12.5 pmol, respectively) in 50 μL of pH 8.5 10 mM Tris containing 50 mM KCl, […] well of a 96 well PCR plate (Bio-Rad, CA, USA). Note that ¼ molar equivalent of streptavidine corresponds to 1 molar equivalent of the biotin binding site in streptavidin with respect to the amount of the unmolecular probe used because streptavidin has 4 biotin binding sites. The assay solutions were then incubated for about 30 min at 60° C. The temperature dependence of the fluorescence signal from each well was measured with an iCycler iQ real time PCR machine purchased from Bio-Rad (CA, USA) using the melting profile protocol.
The assay solutions for the unimolecular probes (50 pmol of each probe with 0, ⅛, and ¼ molar equivalent of streptavidin) were prepared in a 96 well PCR plates by the same procedure described in Example 11. As in Example 11, the temperature dependence of the fluorescence signal was measured with an iCycler iQ real time PCR machine.
(§1) Again, the assay solutions for the above unimolecular probes (50 pmol of each probe with 0, ⅛, and ¼ molar equivalent of streptavidin) were prepared in a 96 well PCR plates by the same procedure described in Example 11, and the temperature dependence of the fluorescence signal was measured with an iCycler iQ real time PCR machine.
as §1, with “above two” for “above”, “0” for “0, ⅛,”
Assay solutions for the above unimolecular probe (50 pmol of each probe with 0 and ¼ molar equivalent of streptavidin) were prepared in a 96 well PCR plates by the same procedure described in Example 11, and the temperature dependence of the fluorescence signal was measured.
Assay solutions for the above unimolecular probe (50 pmol of each probe with 0 and ¼ molar equivalent of streptavidin with total volume including the buffer solution being 50 μL) were prepared in a 96 well PCR plates using the following four buffer solutions: pH 6.0 10 mM MES containing 50 mM KCl, 2.5 mM MgCl2; pH 7.0 10 mM Tris containing 50 mM KCl, 2.5 mM MgCl2; pH 8.0 10 mM Tris containing 50 mM KCl, 2.5 mM MgCl2; and pH 9.0 10 mM Tris containing 50 mM KCl, […] The temperature dependence of the fluorescence signal from each well was measured with an iCycler iQ real time PCR machine.

streptavidin [4] = biological target: T1, streptavidin; assay: Unimolecular probe assay for streptavidin analysed by non-denaturing electrophoresis (Example 3); type: binding; details: in the presence of streptavidin; incubated in ice for an hour
Text: Two unimolecular affinity probes, UP1-34B (SEQ ID NO: 127) and UP2-6B/36B (SEQ ID NO: 128), having biotin as a probe ligand were used to detect a receptor agent, streptavidin (SA). The unimolecular affinity probe UP1 is depicted schematically in FIG. 18. UP1 has a biotin-coupled thymidine at the 34th position, and UP2 has two biotin-coupled thyrnidines at the 6th and 36th positions (see FIG. 23A for the structure of the biotin-coupled thymidine). Each unimolecular probe has an interactive label pair consisting of a fluorescer, fluorescein, and a quencher, DABCYL (4-(4′-dimethylaminophenylazo)benzoic acid), which are covalently linked to the 5′ and the 3′ terminus by a linker, respectively. The structures of the fluorescein and DABCYL with the linker are shown in FIGS. 23B and 23D, respectively. […] This causes decrease of the fluorescence intensity from the probe compared to the dissociated conformation in which the stem duplex is dissociated and thus the fluorescer moiety is located distal from the quencher moiety. […]
Assay solutions were prepared according to the compositions summarized in Table 6, incubated in ice for an hour, and analyzed by electrophoresis. […] Dissociation of the stem duplexes due to the destabilization effect caused by the binding of the receptor agent is manifested by the increased fluorescence. […]

streptavidin [5] = biological target: T1, streptavidin; assay: Immobilized trimolecular affinity probe assay for detecting streptavidin (Example 9); type: binding; details: upon addition of streptavidin, depending on amount added; CM3* fluorescence at 535 nm
Text: Two immobilized trimolecular affinity probes having a probe ligand (biotin) conjugated to the first complement sequence were used to detect streptavidin. One of the trimolecular probes used in this example is depicted schematically in FIG. 15. The first probe consists of an object oligonucleotide OB1-1B (SEQ ID NO: 135) comprising first and second object sequences, a first complement sequence CM2-4B (SEQ ID NO: 136) having a probe ligand, and a second complement sequence CM3* (SEQ ID NO: 131). The second probe consists of an object oligonucleotide OB1-1B (SEQ ID NO: 135), a first complement sequence CM1-4B (SEQ ID NO: 133) having a probe ligand, and a second complement sequence CM3* (SEQ ID NO: 131). The object oligonucleotide OB1-1B has a biotin covalently linked to the first nucleotide, adenosine in the 5′ end that is used to immobilize the object sequence (see FIG. 23E for the structure of the biotin-coupled abasic nucleotide). The second complement oligonucleotide CM3* has fluorescein as a fluorescent label at the 5′ terminal.
The object oligonucleotide having a biotin residue in the 5′ terminal was immobilized to microwell plate wells coated with streptavidin. […] Fluorescence from the second complement oligonucleotide CM3* from each well was then measured at 535 nm using a microwell plate reader (GENios, TECAN, USA).

[6] = pH 6.0, 7.0, 8.0, 9.0, without and with streptavidin

T1 sequence (P22629 25-183): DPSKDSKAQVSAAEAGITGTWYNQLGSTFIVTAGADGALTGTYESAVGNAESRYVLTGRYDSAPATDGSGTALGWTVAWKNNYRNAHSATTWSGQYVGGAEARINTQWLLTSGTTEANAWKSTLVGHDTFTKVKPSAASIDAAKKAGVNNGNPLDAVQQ

## O=C(O)CCCC[C@@H]1SC[C@@H]2NC(=O)N[C@@H]21 [biotin]
Streptavidin [1]
  fluorescence intensity of UP6-23B as a function of inhibitor concentration: decreases with increasing inhibitor concentration

## PKC (Protein Kinase C)
[2]
  fluorescence signal of the PKC probe after the kinase reaction and addition of anti-phosphothreonine antibody: a substantial increase of the fulorescence signal with respect to that measured with un-reacted PKC probe is observed in the absence of the inhibitor

## UP1-34B: unimolecular affinity probe (SEQ ID NO: 127), biotin-thymidine at 34th position, fluorescein/DABCYL, 6 bp stem (GCAGCCTAGGAAACACCAAAGATGATATTTGGCTGC; listed as DNA, chemistry not fully specified)
Streptavidin [3]; 6 bp stem duplex vs 4 bp stem duplex
  melting temperature higher than that of the probe UP14-21B: about 20 °C
Streptavidin [4]
  fluorescence in the high mass region of the gel: strongly enhanced fluorescence

## UP2-6B/36B: unimolecular affinity probe (SEQ ID NO: 128), biotin-thymidines at 6th and 36th positions, fluorescein/DABCYL, 7 bp stem (GCAGCTCTAGGAAACACCAAAGATGATATTTGAGCTGC; listed as DNA, chemistry not fully specified)
Streptavidin [4]
  fluorescence in the high mass region of the gel: strongly enhanced fluorescence

## UP6-23B: unimolecular probe (SEQ ID NO: 141), 15 nt loop, 5 bp stem, biotin, fluorescein/DABCYL (GCAGGATACTCATTACCATACCTGC; biotin, fluorescein and DABCYL, positions not given here, hairpin)
Streptavidin [3]; absence of the receptor agent, 0 mM MgCl2
  melting temperature: about 38 °C
Streptavidin [3]; absence of the receptor agent, 5 mM MgCl2
  melting temperature: about 58 °C
Streptavidin [3]; [6]
  fluorescence intensity as a function of pH: increases dramatically depending on the pH
  melting temperature as a function of pH: increases with pH
Streptavidin [3]; presence of the receptor agent (¼ molar equivalent of streptavidin), 0 mM MgCl2
  melting temperature: about 33 °C
Streptavidin [3]; presence of the receptor agent (¼ molar equivalent of streptavidin), 5 mM MgCl2
  melting temperature: about 45 °C

## UP10-13B: unimolecular probe (SEQ ID NO: 155), biotin in loop, 8th nucleotide from both ends of the loop region (GCAGCATCCTCATTACCCTAGCTGC; biotin in loop, hairpin stem-loop, further chemistry not given here)
Streptavidin [3]; ¼ molar equivalent of streptavidin vs. none
  response of the fluorescence signal of the unimolecular probe to addition of the receptor agent (conjugation position dependence): did not work properly as a unimolecular probe

## UP14-21B: unimolecular probe (SEQ ID NO: 149), 4 bp stem duplex, biotin, fluorescein/DABCYL (GCAGATACTCATTACCATACTGC; biotin, fluorescein and DABCYL, positions not given here, hairpin)
Streptavidin [3]; upon addition of streptavidin
  relative increase of the fluorescence signal, compared between the 4 bp and 6 bp stem probes: larger

## UP15-23B: unimolecular probe (SEQ ID NO: 150), stem and loop length as UP6-23B, different loop sequence with secondary 4 bp stem conformer (GCAGGATACTGCTTACCATACCTGC; biotin label, position not given here, hairpin)
Streptavidin [3]
  relative increase of the fluorescence intensity (¼ molar equivalent of streptavidin divided by that without streptavidin): about 3

## UP16-23B: unimolecular probe (SEQ ID NO: 151), stem and loop length as UP6-23B, different loop sequence with secondary 4 bp stem conformer (GCAGGACTCTCATTACACTGCCTGC; listed as DNA, chemistry not fully specified)
Streptavidin [3]
  relative increase of the fluorescence intensity (¼ molar equivalent of streptavidin divided by that without streptavidin): about 1.5

B1: second probe: immobilized trimolecular affinity probe of Example 9: OB1-1B, CM1-4B and CM3* (nucleic acid)
chain 1: ATGGAAGTATATGGAAGTATATGGAAGTATTCGTGGGGTTTTGCAGTCGTAG
chain 2: GACTGCAAAACCCC
chain 3: CTACGACTGCAA
modifications: chain 1: DNA, backbone not given here; chain 2: DNA, backbone not given here; chain 3: DNA, 5' {Fluorescein}, backbone not given here; OB1-1B biotin at 5' first nucleotide, CM1-4B biotin ligand, further chemistry not fully specified
Streptavidin [5]
  increase of fluorescence intensity, normalized to intensity in the absence of the receptor agent: 2-3.5 fold
